From patent publication US12312599B2, “Methods, compositions, and kits for producing beige adipocytes and treating metabolic disorders” (MaineHealth, priority 2018, dated 2025)

Experiments:
Format in all cases: cell-based, human
[1] = test system: iPSC-beige adipocytes; experiment: Fatty acid uptake assay; details: adipocytes whitened 6 days without rosiglitazone
Procedure: Following washes, add secondary antibody diluted at a ratio of 1:1200 and incubate 2 hours at room temperature. • 5. Remove secondary antibody solution and wash 3 times with TBS with Tween 20 (5 minutes per wash). • 6. Develop membrane with Clarity™ Western ECL Substrate and detect using a Bio-Rad ChemiDoc Touch Imaging System. • 7. Quantitation of protein was performed using Image Lab software (Bio-Rad). Fatty Acid Uptake Assay Preparation • 1. Expand and grow iPSC-beige and whitened iPSC-beige adipocytes to full maturity in a 96 well plate (day 12) (see Generation of beige adipocytes above). To whiten iPSC-beige adipocytes for this assay, induce iPSC-MSCs for three days in the induction cocktail as described in the differentiation protocol (see Generation of beige adipocytes above). Following three days of induction, replace beige induction medium with DMEM containing 10% FBS and insulin ([…]). Change 100% of medium every 3 days until full maturity (day 12). • 2. On day 12, replace culture medium with DMEM containing 10% FBS. Change 100% of medium every 2 days for 6 days. • 3. Following 6 days of rest, remove culture medium and replace with […] of serum free DMEM containing 0.2% BSA. Incubate the plate at 37° C. in a 5% CO2 incubator for 1 hour. • 4. After 1 hour, add CL316,243 ([…]) to designated wells. Allow cells to incubate for 2 hours. • 5. […] Quantification and Statistical Analysis

[2] = test system: iPSC-beige adipocytes; experiment: Seahorse XF oxygen consumption after β3-adrenergic stimulation; details: adipocytes whitened 4 days without rosiglitazone, CL316,243 for 4 hr
[3] = test system: iPSC-beige adipocytes; experiment: UCP1 qPCR after β3-adrenergic stimulation of iPSC-beige adipocytes
[4] = test system: iPSCs; experiment: Mesoderm induction of iPSCs: FOXF1 and IRX3 expression
Procedure: PSCs were cultured in monolayer on hESC-qualified Matrigel-coated plates (Corning) and expanded in NutriStem hPSC XF Medium (Stemgent) and passaged with ReLeSR passaging reagent (STEMCELL Technologies). For mesoderm induction (Day 0), PSC colonies was dissociated with TrypLE cell dissociation reagent (Thermofisher) and plated on Matrigel coated plates in NutriStem medium containing 10 μM Y-27632 Rho kinase inhibitor (Calbiochem). The following day (Day 1), NutriStem medium was replaced with STEMdiff Mesoderm Induction Medium (MIM) (STEMCELL Technologies) and changed each day until day 5.
Note: Only use Y-27632 stock solutions that have been resuspended in DMSO. […] Conduct Mesoderm induction of iPSC in a laminar flow cabinet. • 3. Expand cells in NutriStem hPSC XF Medium overnight and change 100% of the medium without Y-27632 every 24 hours in a laminar flow cabinet for cell culture. When changing media, tilt plate up and allow media to pool at the bottom of wells. Aspirate the pooled medium without touching the surface of the plate. Replace with medium warmed to room temperature by pipetting 2 ml down the side of the wells. Cell Passaging • 1. Expand cell colonies until they have reached 70-80% confluence in high-density areas of the wells. High-density accumulation can occur along the edges of the well as well as the middle. Cells permitted to reach high density will lose their potential for differentiation after multiple passages. • 2. Prior to cell passage, warm cell wash buffer and NutriStem hPSC XF Medium to room temperature. Conduct cell passage in a laminar flow cabinet. • 3. Aspirate NutriStem hPSC XF Medium from wells with vacuum aspirator and wash with PBS without calcium or magnesium. Remove PBS and add 1 ml of ReLeSR reagent to side of well. Agitate plate to allow ReLeSR reagent to spread evenly on the surface. • 4. Aspirate ReLeSR reagent with vacuum aspirator after 30 seconds, which will leave behind a thin film of liquid. Incubate plate at 37° C. for 5-8 minutes undisturbed. • 5. Add fresh NutriStem hPSC XF Medium to wells and gently remove the cell colonies from the plate. Check that most cells have been dislodged from the plate surface with a light microscope. If not, rewash with more medium as needed. • 6. Transfer cell colony suspension in NutriStem hPSC XF Medium to Matrigel coated culture plates for further expansion (see Cell plating and culture above). Generation of iPSC Derived MSCs Mesoderm Induction of iPSC • 1. When iPSCs have reached 70-80% confluence, they will need to be passaged as single cells rather than colonies prior to mesoderm induction (day 0). • 2. Prepare for passage by warming cell wash buffer and NutriStem hPSC XF medium to room temperature and add Y-27632 Rho kinase inhibitor to medium at a final concentration of 10 μM. […]

[5] = test system: FD-MSCs; experiment: Beige adipogenic precursor markers in FD-MSCs (flow cytometry, immunostaining, qPCR); details: 2 days pretreatment
Procedure: All assays were performed between 7 and 15 passages. For osteocyte differentiation, mature MSCs were grown in 24 well culture plates to 100% confluency in MesenCult-ACF and induced to differentiate in OsteoLife Complete Osteogenesis Medium (Lifeline Cell Technology) for 21 days prior to staining with Lifeline Alizarin Red Stain to visualize calcium deposition. For chondrocyte differentiation. For beige adipogenic precursor generation, cells were grown in 24 well culture plates to 90% confluence and treated with 5 uM SB413542 (Sigma) and 10 nM human IL-4 (Peprotech) for 2 days. For beige adipogenic induction, adipogenic precursors are differentiated for 3 days with adipogenic medium consisting of T3 (2 nM), insulin (170 nM), rosiglitazone (1 μM), SB413542 (5 uM), IBMX (0.5 mM), dexamethasone (5 μM) and indomethacin (125 μM) in EGM-2 medium (Lonza) supplemented with the BulletKit minus FGF2 (modified from^33). Thereafter, cells are maintained in adipogenic medium without IBMX, dexamethasone and indomethacin. The medium was changed every 3 days and adipocytes were fully differentiated by 9-12 days as determined by lipid accumulation and peak expression of UCP1.
Cell Isolation, Expansion and Differentiation of Interscapular Brown Adipose Tissue Preadipocytes • 1. Prior to adipose cell isolation, warm DMEM, FBS and cell wash buffer to room temperature. • 2. In a laminar flow cabinet for cell culture, place 5 g of adipose tissue on a 100×20 mm dish. Suspend tissue in 1 mL of Adipose Tissue Dissociation Kit enzyme digest cocktail and finely mince with a razorblade. • 3. Transfer cell suspension slurry to a 5 mL polystyrene round bottom tube and add an additional 1.5 mL of enzyme digest cocktail to tube. • 4. Incubate tube at 37° C. on a rotating nutator for 30 minutes. During incubation period, briefly vortex sample for 5 s in 10-minute intervals. • 5. Transfer cells to a 15 mL tube and add 5 mL of DMEM. Filter cell suspension through a 100 μm strainer into a new 15 mL tube and centrifuge at 300 g for 5 minutes to form a pellet. • 6. Remove supernatant and leave behind […] of DMEM. […]

C[C@H](Cc1ccc2c(c1)OC(C(=O)[O-])(C(=O)[O-])O2)NC[C@H](O)c1cccc(Cl)c1.[Na+].[Na+] [CL316,243]
fatty acid (FA) uptake [1]: increased | overall respiration and proton leak [2]: increased overall respiration and proton leak | effect on UCP1 expression ([3]; during initial differentiation, in the presence of rosiglitazone): masked or inhibitory | UCP1 expression ([3]; during initial differentiation, without rosiglitazone): increased | UCP1 expression ([3]; mature iPSC-beige adipocytes, CL316,243 1 μM, 4 hr): increased expression

Cc1c[nH]c(-c2cnc(NCCNc3ccc(C#N)cn3)nc2-c2ccc(Cl)cc2Cl)n1 [CHIR]
FOXF1 protein compared to StemDiff MIM ([4]; 1.5 μM CHIR in combination with VEGF and BMP4): significant increase | expression of FOXF1 (qPCR) ([4]; CHIR raised to 5 μM in combination with BMP4 and VEGF): decrease

B1: IL-4: human IL-4 (Peprotech), used at 10 nM (protein, UniProt P05112 25-153, looked up)
Interleukin-4: HKCDITLQEIIKTLNSLTEQKTLCTELTVTDIFAASKNTTEKETFCRAATVLRQFYSHHEKDTRCLGATAQQFHRHKQLIRFLKRLDRNLWGLAGLNSCPVKEANQSTLENFLERLKTIMREKYSKCSS
transcription of beige adipogenic precursor markers PDGFRα and EBF2 [5]: little effect
